Reference: PubChem BioAssay (NCI)
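The compound was tested at five concentrations on cells cultured in 96-well plates, with a 48-hour exposure period. TGI denotes the concentration required for complete inhibition of growth.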

What was measured:
Experiment in all cases: NCI anticancer screen, dose series, 48 h
[1] = test system: K-562 leukemia
[2] = test system: RXF 393 renal
[3] = test system: SF-539 CNS
[4] = test system: HL-60(TB) leukemia
[5] = test system: SF-268 CNS
[6] = test system: RPMI-8226 leukemia
[7] = test system: BT-549 breast
[8] = test system: MALME-3M melanoma
[9] = test system: A549 NSCLC
[10] = test system: NCI-H23 lung

COC(=O)C(=O)C(C(=O)C(=O)Nc1ccccc1C(=O)OC)c1nc2ccc(C(=O)c3ccccc3)cc2[nH]c1=O (stereo not given)
TGI [1]: > 100 µM
TGI [2]: > 100 µM
TGI [3]: > 100 µM
TGI [4]: > 100 µM
TGI [5]: > 100 µM
TGI [6]: > 100 µM
TGI [7]: > 100 µM
TGI [8]: > 100 µM
TGI [9]: > 100 µM
TGI [10]: > 100 µM

COC1/C=C\C=C(/C)C(=O)NC2=CC(=O)C(NCCCl)=C(CC(C)CC(OC)C(O)C(C)/C=C(/C)C1OC(N)=O)C2=O (stereo not given)
TGI [1]: 13.5 µM
TGI [2]: 1.2 µM
TGI [3]: 2.17 µM
TGI [4]: 3.23 µM
TGI [5]: 14 µM
TGI [6]: 31.4 µM
TGI [7]: 2.85 µM
TGI [8]: 1.48 µM
TGI [9]: 14.3 µM
TGI [10]: 1.27 µM

O=C(CCSC(CC(=O)c1ccc(Cl)cc1)c1ccc(Cl)cc1)Nc1ccc(Cl)cc1 (stereo not given)
TGI [1]: 18.6 µM
TGI [2]: 28.2 µM
TGI [3]: 32.6 µM
TGI [4]: 20.4 µM
TGI [5]: 29 µM
TGI [6]: 5.57 µM
TGI [7]: 27.1 µM
TGI [8]: 30.6 µM
TGI [9]: 40 µM
TGI [10]: 30.4 µM

COC(=O)OC[C@H]1O[C@@H](n2cc(C)c(=O)[nH]c2=O)CC1OC(=O)OC (stereo not given in full)
TGI [1]: > 100 µM
TGI [2]: > 100 µM
TGI [3]: > 100 µM
TGI [4]: > 100 µM
TGI [5]: > 100 µM
TGI [6]: > 100 µM
TGI [7]: > 100 µM
TGI [8]: > 100 µM
TGI [9]: > 100 µM
TGI [10]: > 100 µM

Cc1ncc([N+](=O)[O-])n1CCN(C)CCCCn1ccnc1[N+](=O)[O-]
TGI [1]: > 100 µM
TGI [2]: > 100 µM
TGI [3]: > 100 µM
TGI [4]: > 100 µM
TGI [5]: > 100 µM
TGI [6]: > 100 µM
TGI [7]: > 100 µM
TGI [8]: > 100 µM
TGI [9]: > 100 µM
TGI [10]: > 100 µM

CC1C(c2ccc(N(C)C)cc2)c2cc3c(cc2OC1N1CCCC1)OCO3 (stereo not given)
TGI [1]: 97.3 µM
TGI [2]: > 100 µM
TGI [3]: 60.2 µM
TGI [4]: 73.6 µM
TGI [5]: > 100 µM
TGI [6]: 97.5 µM
TGI [7]: > 100 µM
TGI [8]: > 100 µM
TGI [9]: > 100 µM
TGI [10]: > 100 µM

CSc1n[nH]c(N)c1C(=O)Nc1ccc(Cl)cc1
TGI [1]: > 100 µM
TGI [2]: 60.7 µM
TGI [3]: > 100 µM
TGI [4]: > 100 µM
TGI [5]: > 100 µM
TGI [6]: > 100 µM
TGI [7]: > 100 µM
TGI [8]: > 100 µM
TGI [9]: > 100 µM
TGI [10]: > 100 µM

CCOC(=O)NNC(=O)NCCNC(=O)NNC(=O)OCC
TGI [1]: > 100 µM
TGI [2]: > 100 µM
TGI [3]: > 100 µM
TGI [4]: > 100 µM
TGI [5]: > 100 µM
TGI [6]: > 100 µM
TGI [7]: > 100 µM
TGI [8]: > 100 µM
TGI [9]: > 100 µM
TGI [10]: > 100 µM

N#CC(c1ccc(O)cc1)N1CCN(C(C#N)c2ccc(O)cc2)CC1 (stereo not given)
TGI [1]: > 100 µM
TGI [2]: > 92.5 µM
TGI [3]: > 100 µM
TGI [4]: > 100 µM
TGI [5]: 64.4 µM
TGI [6]: > 100 µM
TGI [7]: > 100 µM
TGI [8]: > 100 µM
TGI [9]: > 100 µM
TGI [10]: > 100 µM

Cc1cc(-c2ccc(C(=O)C(Cl)(Cl)Cl)[nH]2)on1
TGI [1]: > 100 µM
TGI [2]: 41.9 µM
TGI [3]: 33 µM
TGI [4]: 64.6 µM
TGI [5]: > 100 µM
TGI [6]: > 100 µM
TGI [7]: 98.1 µM
TGI [8]: > 100 µM
TGI [9]: > 100 µM
TGI [10]: 54.3 µM

O=C(Cc1ccc(Cl)c(Cl)c1)NCCCN1CCN(CCCN2CCCCC2)CC1
TGI [1]: 7.5 µM
TGI [2]: 31.1 µM
TGI [3]: 28.8 µM
TGI [4]: 37.2 µM
TGI [5]: 50.4 µM
TGI [6]: 16.3 µM
TGI [7]: 57.4 µM
TGI [8]: 34.7 µM
TGI [9]: 49.5 µM
TGI [10]: 42.6 µM

COc1c(C2(c3ccc(F)cc3)SCCCS2)c(=O)c1=O
TGI [1]: > 100 µM
TGI [2]: > 100 µM
TGI [3]: > 100 µM
TGI [4]: > 100 µM
TGI [5]: > 100 µM
TGI [6]: > 100 µM
TGI [7]: > 100 µM
TGI [8]: > 100 µM
TGI [9]: > 100 µM
TGI [10]: > 100 µM
